Results: US20250041313A1, “COMBINATION THERAPY FOR TREATMENT OF CANCER” (CITY OF HOPE, priority 2023, published 2025)

Columns and labels:
[1] = cited from earlier work
H446 spheroids [2] = experiment: Imaris mitochondrial morphology in spheroids; assay type: cell-based, human; conditions: Teri 1600 nM, Teri/Lur 800, 1600 nM/pM
Experimental: Spheroids were transferred to low cell attachment dishes, grown for two days, and treated with drug. After treatment, spheroid samples were run with Western blot assay. For spheroid mitochondria visualization, they were stained with 250 nM MitoTracker® Red CMXRos and Hoechst from ThermoFisher Scientific (Waltham, MA) for 2 h after drug treatment. Spheroids were washed, fixated with 4% PFA, transferred into 96-well flat glass-bottom black microplate (Cellvis, Mountain View, CA), and mounted in wells. […] Z-stacks were acquired in Airyscan Fast mode with a 2.0 μm interval and optical zoom of 2.0. […] In Airyscan Fast mode excitation was provided by 405 nm (1.0%) and 561 nm (1.0%) lasers with gain and detection wavelengths: DAPI […] (450 nm) and Red […] (579 nm). 2D images were acquired with a 20×/0.8 NA Plan-Apochromat objective and captured with PMT detectors. […] Roundness ratios were calculated from Surface generated Bounding Box 00 Length measurements. Object lengths less than 0.1 μm were excluded, and lengths greater than 1.26 μm were separately analyzed as clusters. […] The Cells module was used to detect and quantify mitochondria and nucleus area from cell monolayers. […] Imaris includes nuclei in cytoplasm measurements, so mitochondrial area is calculated by subtracting nucleus area from cell cytoplasm area. […]

SCLC = conditions: relapsed / second-line SCLC patients; cited from earlier work
H446 spheroids [3] = experiment: Immunoblotting of spheroid lysates; assay type: cell-based, human; conditions: for DRP1 phosphorylation at Ser616: Teri 1600 and 3200 nM
Experimental: (§1) SCLC total cell lysates were prepared using RIPA (radioimmunoprecipitation assay lysis buffer) lysis buffer. Protein concentration was determined using DC Protein Assay Kit Bio-Rad (Hercules, CA). Samples were then run on SDS-PAGE in 4-15% polyacrylamide gels and transferred onto Immobilon membranes (Millipore, MO), blocked, incubated with specific primary antibodies at 4° C. overnight, and subsequently developed with secondary antibodies. The following primary antibody were used: pan-Actin, Phospho-DRP1 (Ser^616), Phospho-DRP1 (Ser^637), Histone H2B (V^119), Phospho-Histone H2A.X (Ser^139), Phospho-P53 (Ser^15), P-53, Cleaved PARP (Asp^214) (D64E10), Phospho-Chk1 (Ser^345) (133D3) and p21 were from Cell Signaling Technology (City of Industry, CA), β-Actin (Sigma-Aldrich, St. Luis, MO), Phospho RNA Polymerase II (S2) antibody (Bethyl Lab, Montgomery, TX), RNA Polymerase II CTD4H8 (BioLegend, San Diego, CA), DHODH (E-8), DRP1 (C-5), GAPDH (0411), c-Myc (9E10), Tom20 (F-10), FisI (B-5), OPA1 (D-9), antibodies from Santa Cruz Biotechnology (Dallas, TX) and MFN2 (Abcam, Boston, MA) and Chk1, MDM2, Cyclin CDK4 and D1, and E2F1 (Proteintech, Rosemont, IL).
SBC3 and H446 cells were plated at a density of 10,000 cells per well in 96-well ULA round-bottomed plates (S-Bio, Hudson, NH) and incubated for 72 h at 37° C., 5% CO2, and 95% humidity. Spheroids were transferred to low cell attachment dishes, grown for two days, and treated with drug. After treatment, spheroid samples were run with Western blot assay. For spheroid mitochondria visualization, they were stained with 250 nM MitoTracker® Red CMXRos and Hoechst from ThermoFisher Scientific (Waltham, MA) for 2 h after drug treatment. Spheroids were washed, fixated with 4% PFA, transferred into 96-well flat glass-bottom black microplate (Cellvis, Mountain View, CA), and mounted in wells.

SBC5 SCLC cell line = experiment: Immunoblotting of DRP1 phosphorylation; assay type: cell-based, human; conditions: SBC5 as printed
Experimental: as §1
Although mitochondrial areas of SBC5 cells were not affected with treatment, elongations of individual mitochondria were detected with each treatment.

SBC3 cells = experiment: Immunoblotting of cell lysates (pDRP1, p53, DNA damage markers); assay type: cell-based, human
Experimental: as §1

Compound | safety profile ([1]; up to 40 mg/day, patients with Wegner's granulomatosis) | time to attain steady state concentrations ([1]; without a loading dose, estimated, FDA label) | Percentages of round/fragmentated mitochondria (H446 spheroids [2]) | ORR (SCLC) | median PFS (SCLC) | CDK4 (H446 spheroids [3]) | DRP1 phosphorylation at Ser616 (H446 spheroids [3]) | DRP1 expression level (SBC5 SCLC cell line) | DRP1 phosphorylation at Ser616, and Ser637 (SBC5 SCLC cell line) | p21 (H446 spheroids [3]) | ratio of pDRP1 (Ser616) to pDRP1 (Ser637) (SBC3 cells; SBC3, densitometry) | DRP1 expression level (SBC3 cells; SBC3, immunoblot) | DRP1 phosphorylation at Ser616, and Ser637 (SBC3 cells; SBC3, immunoblot)
Cc1oncc1C(=O)Nc1ccc(C(F)(F)F)cc1 [Leflunomide, leflunomide] | safety profile like the 20 mg/day dose | two | – | – | – | – | – | – | – | – | – | – | –
COc1ccc2[nH]c3c(c2c1)CCN[C@]31CS[C@@H]2c3c(OC(C)=O)c(C)c4c(c3[C@H](COC1=O)N1[C@@H]2[C@H]2c3c(cc(C)c(OC)c3O)C[C@@H]([C@@H]1O)N2C)OCO4 [Lurbinectedin, lurbinectedin] | – | – | significantly decreased | 32.7% | 3.5 months | inactivated | reduction | – | – | – | – | – | –
C/C(O)=C(\C#N)C(=O)Nc1ccc(C(F)(F)F)cc1 [Teriflunomide, teriflunomide] | – | – | significantly decreased | – | – | – | dose-dependent inhibition | unaffected | significantly inhibits | strongly elevated | significantly decreased in a dose-dependent manner | unaffected | significantly inhibited
